The values that follow come from patent publication US8754226B2, “Piperidinyl-substituted lactams as GPR119 modulators” (Array BioPharma Inc., priority 2010, dated 2014).

The test system of the assay is modified version of the GPR119 receptor (94% identity to human receptor). The experiment in a line: cAMP production assay (LANCE cAMP kit, TR-FRET) in HEK-293 cells. Type of assay: cell-based. The conditions noted are these: for cAMP production in HEK-293 cells: HEK-293 cells stably expressing modified GPR119, test compounds 0.2 nM to 10 μM, one-hour incubation at ambient temperature; for Fold over baseline: increase in cAMP relative to basal levels, agonist activity if 1.5-fold or greater. A digest of the protocol: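 Doxycycline-induced (1 μg/mL, overnight) HEK-293 cells expressing modified GPR119 were thawed, 2000 cells/well, and exposed to compounds (0.2 nM-10 μM final, 0.5% DMSO) for 1 h at ambient temperature in HBSS/HEPES/BSA. cAMP was measured by LANCE TR-FRET against a standard curve. Agonism was defined as ≥1.5-fold over basal.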

With `CS(=O)(=O)c1cc(F)c(N[C@H]2CCN(C3CCN(c4ccc(C(F)(F)F)cn4)CC3)C2=O)c(F)c1` [Example 105, (S)-3-(2,6-difluoro-4-(methylsulfonyl)phenyl-amino)-1-(1-(5-(trifluoromethyl)pyridin-2-yl)piperidin-4-yl)pyrrolidin-2-one], the “cAMP production in HEK-293 cells” value came out at 11.5 nmol and the Fold over baseline came to 1.6.
`CS(=O)(=O)c1ccc(N[C@H]2CCN(C3CCN(c4cnccn4)CC3)C2=O)c(F)c1` [Example 106, (S)-3-(2-fluoro-4-(methylsulfonyl)phenyl-amino)-1-(1-(pyrazin-2-yl)piperidin-4-yl)pyrrolidin-2-one]: the “cAMP production in HEK-293 cells” value amounted to 17.8 nmol and the Fold over baseline was found to be 3.0.
For the compound `CS(=O)(=O)c1ccc(N[C@H]2CCN(C3CCN(c4ncc(C(F)(F)F)cc4Cl)CC3)C2=O)c(F)c1` [Example 107, (S)-1-(1-(3-chloro-5-(trifluoromethyl)pyridin-2-yl)piperidin-4-yl)-3-(2-fluoro-4-(methylsulfonyl)phenylamino)pyrrolidin-2-one], the “cAMP production in HEK-293 cells” value came out at 20.9 nmol and the Fold over baseline turned out to be 3.2.
For `CS(=O)(=O)c1cc(F)c(N[C@H]2CCN(C3CCN(c4ncc(C(F)(F)F)cc4Cl)CC3)C2=O)c(F)c1` [Example 108, (S)-1-(1-(3-chloro-5-(trifluoromethyl)pyridin-2-yl)piperidin-4-yl)-3-(2,6-difluoro-4-(methylsulfonyl)phenyl-amino)pyrrolidin-2-one], in that order: 15.8 nmol and 2.6.
On to `CS(=O)(=O)c1ccc(N[C@H]2CCN(C3CCN(c4ncc(Cl)cc4Cl)CC3)C2=O)c(F)c1` [Example 109, (S)-1-(1-(3,5-dichloropyridin-2-yl)piperidin-4-yl)-3-(2-fluoro-4-(methylsulfonyl)phenyl-amino)pyrrolidin-2-one], for which the “cAMP production in HEK-293 cells” value worked out at 15.8 nmol and the Fold over baseline amounted to 2.9.
For `CS(=O)(=O)c1cc(F)c(N[C@H]2CCN(C3CCN(c4ncc(Cl)cc4Cl)CC3)C2=O)c(F)c1` [Example 110, (S)-1-(1-(3,5-dichloropyridin-2-yl)piperidin-4-yl)-3-(2,6-difluoro-4-(methylsulfonyl)phenyl-amino)pyrrolidin-2-one], in that order: 29.3 nmol and 2.3.
For `CS(=O)(=O)c1cc(F)c(N[C@H]2CCN(C3CCN(c4ncc(C(F)(F)F)cc4Cl)CC3)C2=O)cc1F` [Example 111, (S)-1-(1-(3-chloro-5-(trifluoromethyl)pyridin-2-yl)piperidin-4-yl)-3-(2,5-difluoro-4-(methylsulfonyl)phenyl-amino)pyrrolidin-2-one], in that order: 37.9 nmol and 3.0.
For `CS(=O)(=O)c1ccc(N[C@H]2CCN(C3CCN(c4ccc(C#N)cn4)CC3)C2=O)c(F)c1` [Example 112, (S)-6-(4-(3-(2-fluoro-4-(methylsulfonyl)phenyl-amino)-2-oxopyrrolidin-1-yl)piperidin-1-yl)nicotinonitrile], the “cAMP production in HEK-293 cells” value is 22.5 nmol and the Fold over baseline was 1.7.
In the same order, the values of `CS(=O)(=O)c1cc(F)c(N[C@H]2CCN(C3CCN(c4ncc(Cl)cc4Cl)CC3)C2=O)cc1F` [Example 113, (S)-1-(1-(3,5-dichloropyridin-2-yl)piperidin-4-yl)-3-(2,5-difluoro-4-(methylsulfonyl)phenyl-amino)pyrrolidin-2-one] are 29.1 nmol and 2.1.
In the same order, the values of `CS(=O)(=O)c1ccc(N[C@H]2CCN(C3CCN(c4ncc(C(F)(F)F)cc4F)CC3)C2=O)c(F)c1` [Example 114, (S)-3-(2-fluoro-4-(methylsulfonyl)phenyl-amino)-1-(1-(3-fluoro-5-(trifluoromethyl)pyridin-2-yl)piperidin-4-yl)pyrrolidin-2-one] are 17.7 nmol and 3.8.
For `CS(=O)(=O)c1ccc(N[C@H]2CCN(C3CCN(c4ncc(Cl)cc4F)CC3)C2=O)c(F)c1` [Example 115, (S)-1-(1-(5-chloro-3-fluoropyridin-2-yl)piperidin-4-yl)-3-(2-fluoro-4-(methylsulfonyl)phenyl-amino)pyrrolidin-2-one], in that order: 15.4 nmol and 3.8.
In the case of `CS(=O)(=O)c1ccc(N[C@H]2CCN(C3CCN(c4ncc(Cl)cc4C#N)CC3)C2=O)c(F)c1` [Example 116, (S)-5-chloro-2-(4-(3-(2-fluoro-4-(methylsulfonyl)phenyl-amino)-2-oxopyrrolidin-1-yl)piperidin-1-yl)nicotinonitrile], the “cAMP production in HEK-293 cells” value was determined as 10.2 nmol and the Fold over baseline is 2.1.
Take `CS(=O)(=O)c1cc(F)c(N[C@H]2CCN(C3CCN(c4ncc(C(F)(F)F)cc4F)CC3)C2=O)c(F)c1` [Example 117, (S)-3-(2,6-difluoro-4-(methylsulfonyl)phenyl-amino)-1-(1-(3-fluoro-5-(trifluoromethyl)pyridin-2-yl)piperidin-4-yl)pyrrolidin-2-one]: the “cAMP production in HEK-293 cells” value came to 31.1 nmol and the Fold over baseline is listed as 4.0.
In the same order, the values of `CS(=O)(=O)c1ccc(N[C@@H]2CCN(C3CCN(c4cnc(Cl)cn4)CC3)C2=O)c(F)c1` [Example 118, (R)-1-(1-(5-chloropyrazin-2-yl)piperidin-4-yl)-3-(2-fluoro-4-(methylsulfonyl)phenyl-amino)pyrrolidin-2-one] are 40.6 nmol and 3.4.
Consider `CS(=O)(=O)c1ccc(N[C@H]2CCN(C3CCN(c4ncc(C(F)(F)F)cc4Cl)CC3)C2=O)cn1` [Example 119, (S)-1-(1-(3-chloro-5-(trifluoromethyl)pyridin-2-yl)piperidin-4-yl)-3-(6-(methylsulfonyl)pyridin-3-ylamino)pyrrolidin-2-one], for which the “cAMP production in HEK-293 cells” value turned out to be 16.3 nmol and the Fold over baseline was 3.3.
As to `Cc1cc(N[C@H]2CCN(C3CCN(c4ncc(Cl)cc4F)CC3)C2=O)cnc1S(C)(=O)=O` [Example 120, (S)-1-(1-(5-chloro-3-fluoropyridin-2-yl)piperidin-4-yl)-3-(5-methyl-6-(methylsulfonyl)pyridin-3-ylamino) pyrrolidin-2-one], the “cAMP production in HEK-293 cells” value was found to be 18.6 nmol and the Fold over baseline is on record as 3.8.
For `Cc1cc(S(C)(=O)=O)ncc1N[C@H]1CCN(C2CCN(c3ncc(Cl)cc3F)CC2)C1=O` [Example 121, (S)-1-(1-(5-chloro-3-fluoropyridin-2-yl)piperidin-4-yl)-3-(4-methyl-6-(methylsulfonyl)pyridin-3-ylamino) pyrrolidin-2-one], in that order: 10.6 nmol and 2.5.
For `Cc1cc(S(C)(=O)=O)ncc1N[C@H]1CCN(C2CCN(c3ncc(Cl)cc3C#N)CC2)C1=O` [Example 122, (S)-5-chloro-2-(4-(3-(4-methyl-6-(methylsulfonyl)pyridin-3-ylamino)-2-oxopyrrolidin-1-yl)piperidin-1-yl) icotinonitrile], in that order: 6.5 nmol and 1.5.
